Like-named read-outs stand apart in the source and are kept apart here.
Assays:
[1] = test system: CAl neurones of rat hippocampus; assay: PSI (inhibition of population spike) test; format: cell-based; details: electric stimulation of Shaffer collateral comissural pathway
Method: PSI (inhibition of population spike) test
The field potentials (population spike) evoked by electric stimulation of the Shaffer collateral comissural pathway were measured in the CAl neurones of rat hippocampus. The population spike can be inhibited by AMPA/kainate antagonists. The non-cumulative IC50 values are shown in Table I. /Tarnawa, I., Molnár, P., Gaál, L., Andrási, F.: Inhibition of hippocampal field potentials by GYKI 52466 in vitro and in vivo, Acta Physiol. Hung., 79(2), 163-9 (1992)/.

[2] = test system: isolated retinal preparation of the chicken; assay: SD (spreading depression) test, evoked by kainate; format: cell-based; details: Gallus gallus, chicken retina
Text: SD (spreading depression) test
The method is based on the phenomenon of spreading depression evoked by kainate in isolated retinal preparation of the chicken. The formation of spreading depression is inhibited (delayed) by AMPA/kainate antagonists. /Sheardown M.J.: The triggering of spreading depression in the chicken retina: a pharmacological study, Brain Res., 607(1-2), 189-194 (1993)/.

male NMRI mice [3] = assay: Muscle relaxant effect, 60° inclined screen according to Hoppe; format: in vivo; details: for muscle relaxant effect in the inclined screen: 60 mg/kg dose; for muscle relaxant effect in the inclined screen / ED50 / Muscle relaxant effect duration: mice; for ED50: Mus musculus, determined at the time of maximal effect; for ED50 / Muscle relaxant effect duration: ip.; for Muscle relaxant effect duration: time of last reading when the effect was at least 30 %
Method: The assay was done according to Hoppe in male NMRI mice weighing 20 to 25 g, with 10 animals in each group /Hoppe, J.O., J . Pharmacol. Exp. Ther., 100, 333 (1950)/. Following the ip. treatment of animals, the number of mice showing muscle weakness were recorded at every 10 minutes in the first hour and at half hour intervals afterwards. The animals falling off the 60° inclined screen within 30 seconds were considered positive. ED50 values of the given compounds were determined at each time. The duration of effect was defined as the time of last reading when the effect was at least 30 %.

male NMRI mice [4] = assay: Maximal electroshock test (MES); format: in vivo; details: Mus musculus, 0.5 h, ip., inhibition of maximal electroshock, 30 minutes after treatment
Method: Maximal electroshock test (MES)
Male NMRI mice weighing 20 to 30 g were used for the method of Swinyard et al. /Swinyard, E.A., Brown, W.C. and Goodman, L.S.: Comparative assays of antiepileptic drugs in mice and rats, J. Pharmacol., 106, 319 (1952)/. The animals, 10 in each group, were treated ip. either with various doses of the test substance or with vehicle. After 30 minutes, a 50 Hz, 40 mA electroshock was applied for 0.4 s through corneal electrodes. The number of animals that developed tonic extensor convulsion of the hind-limbs was registered, percent inhibition was calculated, and ED50 values were determined by the method of Litchfield and Wilcoxon /Litchfield, J.T., Wilcoxon, F.A.: A simplified method of evaluating dose-effect experiments, J. Pharmacol. Exp. Ther., 96, 99 (1949)/ and summarized in Table III.

male DBA/2j strain mice = assay: Audiogenic seizure (AS) test; format: in vivo; details: Mus musculus, ip., DBA/2j mice, inhibition of sound induced seizure
Method: Audiogenic seizure (AS) test
The experiments were carried out by the slightly modified method of De Sarro et al. /De Sarro, G.B., Croucher, M.J. and Meldrum, B.S.: Anticonvulsant action of DS 103-282, Neuropharm., 23, 525 (1984)/. Groups of 8 male DBA/2j strain mice weighing 7 to 14 g were treated ip. with the test substance in 10 ml/kg volume. 15 minutes later, the animals were placed into a covered glass container (30 cm in diameter) and exposed to a 14 kHz 120 dB tone for 60 s at the most. Seizure response was assessed using the following scale: 0 = normal behaviour, 1 = wild running, 2 = clonus, 3 = tonic flexor seizure, 4 = tonic extensor seizure. The maximum response during the 60 s exposure was recorded for each animal. Lethality was also noted. The ED50 values were determined by the method of Litchfield and Wilcoxon concerning the inhibition of clonic seizures and tonic extensor convulsions.

male NMRI mice [5] = assay: Global ischemia induced by magnesium chloride (gasping time); format: in vivo; details: for Effect in % (increase in gasping time): Dose 30 mg/kg ip., magnesium chloride iv. after 30 minutes; for ID50: ip., gasping time, calculated by linear regression
Method: Global ischemia induced by magnesium chloride
The experiments were carried out as described by Berga et al. /Berga, P., Beckett, P.R., Roberts, D.J., Llenas, J., Massingham, R.: Synergistic interactions between piracetam and dihydroergocristine in some animal models of cerebral hypoxia and ischemia, Arzneim.--Forsch., 36, 1314-1320 (1986)/. Groups of 10 male NMRI mice weighing 20 to 25 g were treated ip. with the test substance in […]. After 30 minutes, saturated aqueous magnesium chloride solution was applied iv. (5 ml/kg) resulting in an immediate cardiac arrest. The elapsed time between the iv. injection and the last gasping was measured (gasping time). The means of the treated groups were expressed as percent of control. Statistical analysis was done by ANOVA followed by DUNCAN test. The dose resulting in 50 % descrease in gasping time (ID50) was calculated by linear regression.

[6] = clonic seizures, read-out: AS ED50 clonic convulsion
[7] = tonic extensor convulsions, read-out: AS ED50 tonic convulsion

| Structure (SMILES) | Percent inhibition of population spike (10 micron) [1] | IC50 [2] | muscle relaxant effect in the inclined screen (male NMRI mice [3]) | ED50 (male NMRI mice [3]) | muscle relaxant effect (male NMRI mice [3]; at about 4.5 times higher dose than the anticonvulsive ED50 (6.9 mg/kg)) | Muscle relaxant effect duration (male NMRI mice [3]) | ED50 (male NMRI mice [4]) | ED50 (male DBA/2j strain mice; [6]) | ED50 (male DBA/2j strain mice; [7]) | Effect in % (increase in gasping time) (male NMRI mice [5]) | ID50 (male NMRI mice [5]) |
| --- | --- | --- | --- | --- | --- | --- | --- | --- | --- | --- | --- |
| CC1=NN=C(c2ccc(N)cc2)c2cc3c(cc2C1)OCO3 [A, 8-Methyl-5--(4-aminophenyl)-9H-1,3-dioxolo/4,5-h//2,3/benzodiazepine, reference compound] | 58% | 9500 nM | all the treated animals showed muscle relaxation | 24.5 mg/kg | about 50% | 1 h | 6.9 mg/kg | 4.3 mg/kg | 3.6 mg/kg | 55% | 30 mg/kg |
| CC1=Cc2cc3c(cc2C(c2ccc(N)cc2)=NN1C(=O)NCCN1CCOCC1)OCO3 [Example 6, 5-(4-Aminopheayl)-8-methyl-7H-1,3-dioxolo/4,5-h//2,3/benzodiazepine-7-carboxylic acid-(2-morpholino-4-ylethyl)amide] | – | 6500 nM | no muscle relaxant effect | – | – | – | ~10 mg/kg | – | – | – | – |
| CONC(=O)N1N=C(c2ccc(N)cc2)c2cc3c(cc2CC1C)OCO3 (racemic) [Example 3, (±)-5-(4-Aminophenyl)-7,8-dihydro-8-methyl--7-(N-methoxycarbamoyl)-9H-1,3-dioxolo/4,5-h//2,3/benzodiazepine] | 95% | 1500 nM | – | 18.1 mg/kg | – | 4 h | 3.7 mg/kg | – | – | 52% | 27 mg/kg |
| CC1Cc2cc3c(cc2C(c2ccc(N)cc2)=NN1C(=O)NN)OCO3 (racemic) [Example 4, (±)-5-(4-Aminophenyl)-7-(N-aminocarbamoyl)--7,8-dihydro-8-methyl-9H-1,3-dioxolo/4,5-h//2,3/benzodiazepine] | 95% | – | – | – | – | – | – | – | – | – | – |
| CNC(=O)N1N=C(c2ccc(N)cc2)c2cc3c(cc2C=C1C)OCO3 [Example 11, 5-(4-Aminophenyl)-8-methyl-7-methylcarbamoyl-7H-1,3-dioxolo/4,5-h//2,3/benzodiazepine] | – | 2800 nM | – | – | – | – | – | – | – | – | – |
| CC1Cc2cc3c(cc2C(c2ccc(N)cc2)=NN1C(=O)NC1CC1)OCO3 (racemic) [Example 2, (±)-5-(4-Aminophenyl)-7-(N-cyclopropylcarbamoyl)-7,8-dihydro-8-methyl-9H-1,3--dioxolo/4,5-h//2,3/benzodiazepine] | 100% | 1300 nM | – | 21.1 mg/kg | – | higher than 2 hr | 4.6 mg/kg | 2.5 mg/kg | 1.6 mg/kg | 61% | 13 mg/kg |

Source: EP1015457B1, “1,3-DIOXOLO/4,5-H//2,3/BENZODIAZEPINE DERIVATIVES AS AMPA/KAINATE RECEPTOR INHIBITORS” (EGIS GYOGYSZERGYAR RT., priority 1997, dated 1999)
